Residues, ends and D or L forms follow the SMILES beside them. *: point of attachment. Cbz = O=C(OCc1ccccc1)*
System: DISC1, neural progenitors derived from control subjects
Assay: DISC1 protein level in control iPS-derived neural progenitors, western blot
Format: cell-based, human
Conditions: MG132 10 µM, day 18, up to 3 hours, n=2, western blot
Source text: All iPS derived neural progenitors were provided by Pfizer Neuroscience (Cambridge, MA, USA). The iPS cell lines D2 and D3 and family control cell line C1 were generated using a non-integrated approach by Dr Hongjun Song at Johns Hopkins University and cultured as described previously.[8] The Detroit iPS cell line was generated by Dr S. Engle at Pfizer Neuroscience. Detroit 551 fibroblasts were obtained from ATCC (CCL-110) and maintained in Knockout DMEM (Life Technologies 10829-018), 15% FBS (Life Technologies), 1x Non-essential amino acids (Life Technologies 11140-050), 2 mM L-glutamine (Life Technologies 25030-081), 1x Gentamicin (Life Technologies 15710-072), 0.1 mM β-mercaptoethanol (Sigma M-7522). The cells were reprogrammed with individual lentiviruses expressing c-MYC, KLF4, SOX2, OCT3/4, NANOG, and LIN28. One colony, Detroit 551-3, with ES-like morphology, high expression of pluripotency markers (for example, OCT3/4, TRA-1-60, TRA-1-81, SSEA4), a normal karyotype, […] the ability to form all three germ layers in a teratoma assay was used in all subsequent experiments. […]

Q: Which “DISC1 protein level in NPs from Detroit (control) iPS cells, proteasomal inhibition” value does the source give for `CC(C)C[C@@H](C=O)NC(=O)[C@H](CC(C)C)NC(=O)[C@H](CC(C)C)NC(=O)OCc1ccccc1` [MG132] (Cbz-Leu-Leu-Leu-aldehyde) here?
A: stabilization of DISC1 protein levels within first 30 min up to 3 hours

— paper PMC5984089, “FBXW7 regulates DISC1 stability via the ubiquitin-proteosome system” (Molecular Psychiatry, 2017)
